Broadly, the Kd is the concentration at which binding is half-saturated.

The target of test [1] is T1, MetQ (methionine-binding protein) (Neisseria meningitidis, UniProt Q9JPG4, N238A).
T1 construct: gene gna1946
T1 sequence (Q9JPG4 43-287 N238A): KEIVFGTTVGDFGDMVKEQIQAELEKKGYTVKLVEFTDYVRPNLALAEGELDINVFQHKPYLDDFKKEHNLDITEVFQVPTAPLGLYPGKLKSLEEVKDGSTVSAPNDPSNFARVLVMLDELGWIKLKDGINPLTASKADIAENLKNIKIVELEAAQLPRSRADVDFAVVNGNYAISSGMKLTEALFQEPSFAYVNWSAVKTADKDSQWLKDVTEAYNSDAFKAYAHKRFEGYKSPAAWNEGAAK
Briefly: ITC. (Isothermal titration calorimetry measures the heat released or taken up as one component is titrated into another.)

In test [2] the target is T2, MetQ (methionine-binding protein) (Neisseria meningitidis, UniProt Q9JPG4).
T2 construct: gene gna1946
Kind of test: ITC; crystal structure at […] Å.

Test [3] concerns the target T2, MetQ (methionine-binding protein). Briefly: ITC (displacement titration with D-methionine); crystal structure at […] Å.

As to `CSCC[C@@H](N)C(=O)O` [D-methionine], the values for the equilibrium dissociation constant (Kd) in test [1] and in test [2] were 240 µM and 3.5 µM, respectively.

As for `CSCC[C@H](N)C(=O)O` [L-methionine], the Kd in test [1] was determined as 78 µM; in test [3], 0.0002 µM.

The values are drawn from article PMC6739813, “Structures of the Neisseria meningitides methionine‐binding protein MetQ in substrate‐free form and bound to L‐ and D‐methionine isomers” (Protein Science : A Publication of the Protein Society, 2019).
